Measurements published in patent US12414952B2 (Merck Sharp & Dohme LLC, priority 2018, dated 2025).
pIC50: −log10 of the molar value.

Assays:
[1] = target: human A2b adenosine receptor (Homo sapiens (Human), UniProt P29275); assay: A2b binding affinity, radioligand filtration binding assay; conditions: tritiated proprietary A2b antagonist, HEK293 membranes
Procedure: Measurement of A2b Binding Affinity
The reported affinity of the compounds of the invention for the human A2b adenosine receptor was determined experimentally using a radioligand filtration binding assay. This assay measures the amount of binding of a tritiated proprietary A2b receptor antagonist, in the presence and absence of a compound of the invention, to membranes made from HEK293 cells recombinantly expressing the human A2b adenosine receptor (Perkin Elmer, Cat. No. ES-013-C).
The filter plate was incubated for at least 1 h at 55° C. and allowed to dry. The bottom of the filter plate was then sealed with backing tape. […] The plates were then incubated for at least 20 min, and then the amount of radioactivity remaining in each well was determined using a TopCount® (Perkin Elmer) scintillation counter. After normalization to total and non-specific binding, the percent effect at each compound concentration was calculated. The plot of percent effect versus the log of compound concentration was analyzed electronically using a 4-parameter logistic fit based on the Levenberg-Marquardt algorithm to generate IC50 values.

[2] = target: human A2a adenosine receptor (Homo sapiens (Human), UniProt P29274); assay: A2a binding affinity using radioligand binding, Method (A); conditions: Method (A): [3H]SCH58261 filtration binding
Sequence of human A2a adenosine receptor (P29274 whole entry): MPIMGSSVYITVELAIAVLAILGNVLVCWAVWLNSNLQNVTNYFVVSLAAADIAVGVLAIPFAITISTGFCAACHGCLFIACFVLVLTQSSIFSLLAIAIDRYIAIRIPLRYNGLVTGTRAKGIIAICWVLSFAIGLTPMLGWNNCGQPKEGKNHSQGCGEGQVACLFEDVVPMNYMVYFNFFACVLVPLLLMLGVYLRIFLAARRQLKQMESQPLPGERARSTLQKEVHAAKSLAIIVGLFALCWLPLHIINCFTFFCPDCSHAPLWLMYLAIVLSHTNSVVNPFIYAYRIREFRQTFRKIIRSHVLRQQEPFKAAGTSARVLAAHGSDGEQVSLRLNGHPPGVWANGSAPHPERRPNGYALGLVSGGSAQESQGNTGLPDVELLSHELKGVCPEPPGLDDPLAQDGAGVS
Description: The A2a receptor affinity binding assay measured the amount of binding of a tritiated ligand with high affinity for the A2a adenosine receptor to membranes made from HEK293 or CHO cells recombinantly expressing the human A2a adenosine receptor, in the presence of varying concentrations of a compound of the invention. The data were generated using either filtration binding or a homogenous scintillation proximity assay (SPA).
Method (A): Measurement of A2a Binding Affinity Using Radioligand Binding
148 μL (5 μg/mL) membranes (Perkin Elmer, Cat. No. RBHA2aM400UA) and 2 μL compounds of the invention to be tested (test compound) were transferred to individual wells of a 96-well polypropylene assay plate and incubated for 15 to 30 min at room temperature. [^3H] SCH58261 ((7-(2-phenylethyl)-5-amino-2-(2-furyl)-pyrazolo-[4,3-e]-1,2,4-triazolo[1,5-c]pyrimidine)) was diluted in assay buffer (50 mM Tris pH 7.4, 10 mM MgCl2, 0.005% Tween20) to a concentration of 4 nM and 50 μL transferred to each well of the assay plate. […] The assay plate was incubated at room temperature for 60 min with agitation. […] Filtering was achieved by aspirating the contents of the assay plate for 5 sec, then washing and aspirating the contents three times with ice-cooled wash buffer (50 mM Tris-HCl pH 7.4, 150 mM NaCl) and allowing the vacuum manifold to dry the plate for […]. The filter plate was incubated for at least 1 h at 55° C. and allowed to dry. The bottom of the filter plate was sealed with backing tape. […] The plate was incubated for at least 20 min, and then the amount of radioactivity remaining in each well was determined using a TopCount® (Perkin Elmer) scintillation counter. After normalization to total and non-specific binding, the percent effect at each compound concentration was calculated. The plot of percent effect versus the log of compound concentration was analyzed electronically using a 4-parameter logistic fit based on the Levenberg-Marquardt algorithm to generate IC50 values.

Sequence of human A2b adenosine receptor (P29275 whole entry): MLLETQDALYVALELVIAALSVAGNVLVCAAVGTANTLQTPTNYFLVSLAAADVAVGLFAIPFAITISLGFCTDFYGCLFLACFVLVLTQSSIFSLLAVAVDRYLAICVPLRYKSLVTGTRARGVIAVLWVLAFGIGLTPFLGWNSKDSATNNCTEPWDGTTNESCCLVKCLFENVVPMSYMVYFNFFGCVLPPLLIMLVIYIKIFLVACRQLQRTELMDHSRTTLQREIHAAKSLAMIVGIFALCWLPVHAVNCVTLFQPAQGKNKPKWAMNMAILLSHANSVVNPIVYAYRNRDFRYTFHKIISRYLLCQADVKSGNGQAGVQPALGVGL

pIC50 [1] | pIC50 [2] | Compound
7.13 | 9.05 | CC(C)n1nnc2c1CCN(CCc1nc3cc(-c4cccc(C#N)c4F)nc(N)n3n1)C2 [Example 2.24]
5.06 | 6.08 | Cc1c(-c2cncc(C(F)(F)F)c2)nc(N)c2nc(Cc3ccccc3)nn12 [Example 3.22]
7.87 | 8.57 | Cc1c(-c2cccc(Cl)c2)nc(N)c2nc(Cc3ccccc3)nn12 [Example 3.23]
8.62 | 9.15 | Cc1c(-c2cc(Cl)ccc2F)nc(N)c2nc(Cc3ccccc3)nn12 [Example 3.24]
7.70 | 8.80 | Cc1c(-c2cc(F)cc(F)c2)nc(N)c2nc(Cc3ccccc3)nn12 [Example 3.25]
8.57 | 8.60 | Cc1c(-c2cc(F)cc(F)c2F)nc(N)c2nc(Cc3ccccc3)nn12 [Example 3.26]
6.84 | 7.96 | COc1ncc(-c2nc(N)c3nc(Cc4ccccc4)nn3c2C)cc1Cl [Example 3.27]
7.46 | 8.54 | Cc1c(-c2cc(F)cc(Cl)c2)nc(N)c2nc(Cc3ccccc3)nn12 [Example 3.28]
7.40 | 8.40 | Cc1c(-c2cccc(F)c2F)nc(N)c2nc(Cc3ccccc3)nn12 [Example 3.29]
7.34 | 8.12 | Cc1c(-c2cccc(Cl)c2F)nc(N)c2nc(Cc3ccccc3)nn12 [Example 3.30]
6.87 | 8.21 | COc1cc(F)cc(-c2nc(N)c3nc(Cc4ccccc4)nn3c2C)c1 [Example 3.31]
6.83 | 7.88 | Cc1c(-c2cncc(Cl)c2)nc(N)c2nc(Cc3ccccc3)nn12 [Example 3.32]
6.93 | 7.57 | Cc1c(-c2ccc(F)c(Cl)c2)nc(N)c2nc(Cc3ccccc3)nn12 [Example 3.33]
7.02 | 7.49 | Cc1c(-c2cc(F)c(F)cc2F)nc(N)c2nc(Cc3ccccc3)nn12 [Example 3.34]
6.16 | 7.18 | Cc1ccc(F)cc1-c1nc(N)c2nc(Cc3ccccc3)nn2c1C [Example 3.35]
6.81 | 7.12 | Cc1c(-c2cc(F)c(F)c(F)c2)nc(N)c2nc(Cc3ccccc3)nn12 [Example 3.36]
5.43 | 6.00 | Cc1ccc(-c2nc(N)c3nc(Cc4ccccc4)nn3c2C)cc1F [Example 3.37]
7.07 | 7.01 | Cc1c(-c2cc(F)ccc2Cl)nc(N)c2nc(Cc3ccccc3)nn12 [Example 3.38]
5.99 | 7.01 | Cc1c(F)cccc1-c1nc(N)c2nc(Cc3ccccc3)nn2c1C [Example 3.39]
6.50 | 6.55 | Cc1c(-c2ccc(F)c(F)c2F)nc(N)c2nc(Cc3ccccc3)nn12 [Example 3.40]
6.13 | 6.54 | Cc1c(-c2cccc(F)c2Cl)nc(N)c2nc(Cc3ccccc3)nn12 [Example 3.41]
5.76 | 6.30 | Cc1c(-c2ccc(C#N)c(F)c2)nc(N)c2nc(Cc3ccccc3)nn12 [Example 3.42]

pIC50 [1] | pIC50 [2] | Compound
5.60 | 6.21 | COc1ccc(F)cc1-c1nc(N)c2nc(Cc3ccccc3)nn2c1C [Example 3.43]
7.08 | 8.36 | Cc1c(-c2ccn(C)n2)nc(N)c2nc(Cc3ccccc3)nn12 [Example 3.46]
7.33 | 8.00 | Cc1cccnc1Cc1nc2c(N)nc(-c3cc(F)ccc3F)c(C)n2n1 [Example 4.3, 6-(2,5-difluorophenyl)-5-methyl-2-((3-methylpyridin-2-yl)methyl)-[1,2,4]triazolo[1,5-a]pyrazin-8-amine]
7.59 | 7.64 | Cc1c(-c2cc(F)ccc2F)nc(N)c2nc(Cc3ccc(F)cn3)nn12 [Example 4.4]
7.50 | 7.62 | Cc1c(-c2cc(F)ccc2F)nc(N)c2nc(Cc3cccc4c3ncn4CC(F)F)nn12 [Example 4.5]
8.12 | 7.45 | Cc1c(-c2ncco2)nc(N)n2nc(Cc3ccc4c(c3)ncn4CC(F)F)nc12 [Example 4.7]
8.03 | 7.73 | Cc1c(-c2cc(F)ccc2F)nc(N)c2nc(Cc3ncccc3F)nn12 [Example 4.8]
8.92 | 9.70 | Cc1c(-c2ncco2)nc(N)c2nc(Cc3cccc4c3ncn4CC(C)(C)O)nn12 [Example 4.9]
8.19 | 9.15 | Cc1c(-c2ncco2)nc(N)c2nc(Cc3cccc4c3ncn4CC(F)F)nn12 [Example 4.10]
7.18 | 7.32 | Cc1c(-c2ncco2)nc(N)c2nc(Cc3ccc(C(C)(C)O)cn3)nn12 [Example 4.11]
8.80 | 8.60 | Cc1c(-c2ncco2)nc(N)n2nc(Cc3ccc([C@H]4C[C@@](C)(O)C4)cc3)nc12 [Example 5.2, (1s,3s)-3-(4-((5-amino-8-methyl-7-(oxazol-2-yl)-[1,2,4]triazolo[1,5-c]pyrimidin-2-yl)methyl)phenyl)-1-methylcyclobutanol]
8.46 | 7.92 | Cc1c(-c2ncco2)nc(N)n2nc(Cc3ccc([C@H]4C[C@](C)(O)C4)cc3)nc12 [Example 5.3, (1r,3r)-3-(4-((5-amino-8-methyl-7-(oxazol-2-yl)-[1,2,4]triazolo[1,5-c]pyrimidin-2-yl)methyl)phenyl)-1-methylcyclobutanol]
7.97 | 7.77 | Cc1c(-c2ncco2)nc(N)n2nc(Cc3ccc(C4(O)CCC4)cc3)nc12 [Example 6.3, 1-(4-((5-amino-8-methyl-7-(oxazol-2-yl)-[1,2,4]triazolo[1,5-c]pyrimidin-2-yl)methyl)phenyl)cyclobutanol]
8.24 | 8.31 | COC1(c2ccc(Cc3nc4c(C)c(-c5ncco5)nc(N)n4n3)cc2)CCC1 [Example 6.4, 2-(4-(1-methoxycyclobutyl)benzyl)-8-methyl-7-(oxazol-2-yl)-[1,2,4]triazolo[1,5-c]pyrimidin-5-amine]
8.30 | 7.41 | Cc1c(-c2ncco2)nc(N)n2nc(Cc3ccc(C(C)(C)O)cc3)nc12 [Example 6.5, 2-(4-((5-amino-8-methyl-7-(oxazol-2-yl)-[1,2,4]triazolo[1,5-c]pyrimidin-2-yl)methyl)phenyl)propan-2-ol]
6.61 | 8.72 | Cc1c(-c2ncco2)nc(N)n2nc(Cc3cccc(C(C)(C)O)c3)nc12 [Example 6.6, 2-(3-((5-amino-8-methyl-7-(oxazol-2-yl)-[1,2,4]triazolo[1,5-c]pyrimidin-2-yl)methyl)phenyl)propan-2-ol]
7.52 | 7.80 | Cc1c(-c2ncco2)nc(N)c2nc(Cc3ccc(C(C)(C)O)cc3)nn12 [Example 6.7, 2-(4-((8-amino-5-methyl-6-(oxazol-2-yl)-[1,2,4]triazolo[1,5-a]pyrazin-2-yl)methyl)phenyl)propan-2-ol]
6.48 | 8.92 | Cc1c(-c2ncco2)nc(N)c2nc(Cc3cccc(C(C)(C)O)c3)nn12 [Example 6.8, 2-(3-((8-amino-5-methyl-6-(oxazol-2-yl)-[1,2,4]triazolo[1,5-a]pyrazin-2-yl)methyl)phenyl)propan-2-ol]
8.59 | 9.30 | Cc1c(-c2ncco2)nc(N)n2nc(Cc3ccn(C)n3)nc12 [Example 7.6, 8-methyl-2-((1-methyl-1H-pyrazol-3-yl)methyl)-7-(oxazol-2-yl)-[1,2,4]triazolo[1,5-c]pyrimidin-5-amine]
7.52 | 8.89 | Cc1cccnc1Cc1nc2c(N)nc(-c3ncco3)c(C)n2n1 [Example 8.3]
7.73 | 8.89 | Cc1c(-c2ncco2)nc(N)c2nc(Cc3ncccc3F)nn12 [Example 8.4]
7.32 | 8.35 | Cc1c(-c2ncco2)nc(N)n2nc(CNCc3ccc(C(F)(F)F)cc3)nc12 [Example 10.2, 8-methyl-7-(oxazol-2-yl)-2-(((4-(trifluoromethyl)benzyl)amino)methyl)-[1,2,4]triazolo[1,5-c]pyrimidin-5-amine]
